Test results as given in patent US20100297688A1, “METHOD FOR DIAGNOSING OR PREDICTING SHORT STATURE IN HUMANS” (priority 2009, published 2010).
No end group written: not given here.

What was measured:
[1] = adult dogs, after treatment with GH for 3 months, histomorphometry; cited from earlier work
[2] = system: GH secretion; assay: GHRH test (GH stimulation test) in children with short stature; format: in vivo, human; conditions: GHRH 1 μg/kg IV at 0 min; GH peaks induced consistently in the first 30 min
Description: Patients. A GHRH test was conducted after overnight fasting, modified with samples that were obtained at 3, 5, and 10 minutes in addition to routine protocol collection of samples at 30 minutes, 60 minutes, 90 minutes and 120 minutes following GHRH injection (GHRH1-29: GEREF, SERONO, Italy; 1 μg/kg IV at 0 min). A total of 19 children (8.6±3.2, range from 2.5 yrs to 14 yrs, 5 girls) who suffered SS (short stature) (Ht−2.5±0.6 SDS) were administered GHRH 1 μg/kg IV at 0 min and blood samples were obtained at 0, 3, 5, 10, 30, 60, 90 and 120 min. GH was determined in all samples.
Blood sample processing. GH and IGF-1 were analyzed at Esoterix (Texas, U.S.). IGF1 was measured by radioimmunoassay after acid-ethanol extraction and with IGF2 blocking. A 100 uL of sample was initially used for the procedure. Growth hormone was tested by ICMA, requires min amount of 0.2 ml of serum, preparation include 1 mL serum, separate within one hour that was shipped frozen in plastic vial (http://www.esoterix.com/prodserv/test_menu!)
AUC measurements for GH were calculated according trapezoid rule (Tai MM 1994 A mathematical model for the determination of total area under glucose tolerance and other metabolic curves. Diabetes Care 17:p 152-4).

Substance	increase in cortical bone mass [1] [%]	time of GH peak after GHRH [2] [min]
Growth hormone [GH]	2	
Growth hormone releasing hormone (YADAIFTNSYRKVLGQLSARKLLQDIMSR; ends and bridges not checked; UniProt P01286 32-60, looked up, fragment) [GHRH, GHRH1-29: GEREF, SERONO, Italy; stimulator of GH secretion]		≤ 30
